{"source": "patent US11197857B2", "about": "“Combination therapy” (GlaxoSmithKline Intellectual Property Development Limited, priority 2016, dated 2021)", "key": {"[1]": {"target": "PRMT9 (Homo sapiens, UniProt Q6P2P2)", "sequence (Q6P2P2 whole entry)": "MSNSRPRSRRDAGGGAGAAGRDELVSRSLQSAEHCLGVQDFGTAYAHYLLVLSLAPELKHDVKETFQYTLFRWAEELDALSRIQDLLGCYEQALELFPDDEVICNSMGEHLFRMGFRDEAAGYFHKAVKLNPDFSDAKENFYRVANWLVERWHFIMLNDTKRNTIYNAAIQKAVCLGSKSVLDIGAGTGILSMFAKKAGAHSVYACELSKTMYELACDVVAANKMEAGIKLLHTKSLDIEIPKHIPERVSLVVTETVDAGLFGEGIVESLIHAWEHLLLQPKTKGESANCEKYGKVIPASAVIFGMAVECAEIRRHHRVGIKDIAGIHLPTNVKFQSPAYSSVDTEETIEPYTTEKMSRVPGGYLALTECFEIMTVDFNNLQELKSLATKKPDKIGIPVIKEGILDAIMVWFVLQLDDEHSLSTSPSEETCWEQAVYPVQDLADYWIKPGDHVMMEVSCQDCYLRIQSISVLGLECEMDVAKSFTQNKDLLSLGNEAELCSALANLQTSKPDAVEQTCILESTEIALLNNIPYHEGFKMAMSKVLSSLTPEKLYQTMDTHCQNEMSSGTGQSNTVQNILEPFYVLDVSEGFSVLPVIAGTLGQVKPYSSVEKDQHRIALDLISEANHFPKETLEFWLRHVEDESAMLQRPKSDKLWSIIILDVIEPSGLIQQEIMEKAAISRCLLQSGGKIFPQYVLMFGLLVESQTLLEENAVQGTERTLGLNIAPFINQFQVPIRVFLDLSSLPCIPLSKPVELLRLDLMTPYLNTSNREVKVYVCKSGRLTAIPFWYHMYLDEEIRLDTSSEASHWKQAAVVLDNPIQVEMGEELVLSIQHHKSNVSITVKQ", "assay": "PRMT family radioactive assay", "assay_type": "biochemical", "settings": "60 minute SAM:Enzyme:Compound A preincubation"}, "[2]": {"system": "196 human cancer cell lines", "assay": "6-day growth-death assay (Cell Titer Glo)", "assay_type": "cell-based"}, "[3]": {"system": "AML cell lines", "assay": "6-day growth-death assay (Cell Titer Glo)", "assay_type": "cell-based, human"}, "[4]": {"system": "Bladder cancer cell lines", "assay": "6-day growth-death assay (Cell Titer Glo)", "assay_type": "cell-based, human", "settings": "18 cell lines"}, "[5]": {"system": "Breast cancer cell lines", "assay": "6-day growth-death assay (Cell Titer Glo)", "assay_type": "cell-based, human", "settings": "29 cell lines"}, "[6]": {"system": "Kidney cancer cell lines", "assay": "6-day growth-death assay (Cell Titer Glo)", "assay_type": "cell-based, human", "settings": "10 cell lines"}, "[7]": {"system": "Prostate cancer cell lines", "assay": "6-day growth-death assay (Cell Titer Glo)", "assay_type": "cell-based, human", "settings": "4 cell lines"}, "[8]": {"system": "ADMA, MMA, SDMA in Toledo cells", "assay": "arginine methylation western analysis (time course and washout)", "assay_type": "cell-based, human", "parameters": "time to return of MMA to baseline after washout / time to return of ADMA to baseline after washout / time to return of SDMA to baseline after washout: dose or concentration left out as unconfirmed", "text": "(B) Representative western blots of arginine methylation marks. Regions quantified are denoted by black bars on the right of the gel.\n(B) Representative western blots of arginine methylation marks. Regions quantified for (A) are denoted by black bars on the side of the gel.\nAs predicted, ADMA methylation decreased while MMA increased upon compound exposure (FIG. 12). […] Given the detection of numerous substrates with varying kinetics, and variability of ADMA levels among DMSO-treated samples, both the full lane and a prominent 45 kDa band were characterized to assess ADMA. Increases in MMA were apparent by 24 hours and near maximal by 48 hours while decreases in the 45 kDa ADMA band required 72-96 hours to achieve maximal effect. Increases in SDMA were apparent after 48 hours of compound exposure and continued to increase through 120 hours, consistent with the potential switch from conversion of MMA to ADMA by Type I PRMTs to SDMA by Type II PRMTs (FIG. 12).\nCells were then washed, cultured in Compound A-free media, samples were collected daily through 120 hours, and arginine methylation levels were examined by western analysis. […] SDMA appeared to continue to increase even after 6 hours of washout. This is consistent with the continued increase observed through 120 hours without any obvious plateau (FIG. 12) coupled with the durable increase in MMA that has not yet returned to baseline after washout. Durability of each modification generally reflected the kinetics of arginine methylation changes brought about by Compound A, with MMA being the most rapid."}, "[9]": {"system": "Toledo cells", "text": "FIG. 18: Propidium iodide FACS analysis of cell cycle in human lymphoma cell lines. […] Data represents the average±SEM of biological replicates, n=2."}, "[10]": {"system": "human renal cell carcinoma xenografts (ACHN)", "assay": "ACHN xenograft efficacy", "assay_type": "in vivo, mouse"}, "[11]": {"system": "non-TNBC breast cancer cell lines", "assay": "cells", "settings": "Homo sapiens, read-out: Median gIC50", "method": "Cell lines representing triple negative breast cancer (TNBC) are shown in orange; other subtypes are in blue.\nThe growth of all cell lines was evaluated over time across a wide range of seeding densities to identify conditions that permitted proliferation throughout the entire 6-day assay. Cells were plated at the optimal seeding density and after overnight incubation, a 20-point 2-fold titration of compound was added and plates were incubated for 6 days. A replicate plate of cells was harvested at the time of compound addition to quantify the starting number of cells (T0). Values obtained after the 6 day treatment were expressed as a function of the T0 value and plotted against compound concentration. The T0 value was normalized to 100% and represents the number of cells at the time of compound addition. The data were fit with a 4 parameter equation to generate a concentration response curve and the growth IC50 (gIC50) was determined. The gIC50 is the midpoint of the ‘growth window’, the difference between the number of cells at the time of compound addition (To) and the number of cells after 6 days (DMSO control). The growth-death assay can be used to quantify the net population change, clearly defining cell death (cytotoxicity) as fewer cells compared to the number at the time of compound addition (To)."}, "[12]": {"system": "A375", "assay": "6-day growth-death assay (Cell Titer Glo)", "assay_type": "cell-based, human", "text": "(§1) Cell Titer Glo was used to measure growth inhibition as previously described."}, "[13]": {"system": "COLO741", "assay": "6-day growth-death assay (Cell Titer Glo)", "assay_type": "cell-based, human", "text": "as §1"}, "[14]": {"system": "HT144", "assay": "6-day growth-death assay (Cell Titer Glo)", "assay_type": "cell-based, human", "text": "as §1"}, "[15]": {"system": "IGR-1", "assay": "6-day growth-death assay (Cell Titer Glo)", "assay_type": "cell-based, human", "text": "as §1"}, "[16]": {"system": "MDA-MB-435S", "assay": "6-day growth-death assay (Cell Titer Glo)", "assay_type": "cell-based, human", "text": "as §1"}, "[17]": {"system": "SK-MEL-2", "assay": "6-day growth-death assay (Cell Titer Glo)", "assay_type": "cell-based, human", "text": "as §1"}, "[18]": {"system": "SK-MEL-5", "assay": "6-day growth-death assay (Cell Titer Glo)", "assay_type": "cell-based, human", "text": "as §1"}, "[19]": {"settings": "Homo sapiens, read-out: Median gIC50"}}, "data": [{"molecule": "CCOCC1(COCC)CCC(c2n[nH]cc2CN(C)CCNC)CC1", "note": "[Compound A]", "values": [{"measurement": "inhibition of activity", "setting": "[1]", "value": "failed to inhibit"}, {"measurement": "IC50", "setting": "[2]; [19]", "value": 2120, "unit": "nM"}, {"measurement": "% Cytotoxic (cell lines with negative Ymin-T0)", "setting": "[2]; Total, 196 cell lines", "value": 23, "unit": "%"}, {"measurement": "% gIC100 < 2 μM (share of cell lines)", "setting": "[2]; Total, 196 cell lines", "value": 4, "unit": "%"}, {"measurement": "Median gIC100", "setting": "[2]; Total, 196 cell lines", "value": 29.33, "unit": "µM"}, {"measurement": "number of cell lines in which cytotoxicity was induced", "setting": "[3]; 10 AML cell lines", "value": 5}, {"measurement": "% Cytotoxic (cell lines with negative Ymin-T0)", "setting": "[3]; AML, 10 cell lines", "value": 50, "unit": "%"}, {"measurement": "% gIC100 < 2 μM (share of cell lines)", "setting": "[3]; AML, 10 cell lines", "value": 0, "unit": "%"}, {"measurement": "Median gIC100", "setting": "[3]; AML, 10 cell lines", "value": 16.72, "unit": "µM"}, {"measurement": "IC50", "setting": "[3]; [19]", "value": 540, "unit": "nM"}, {"measurement": "% Cytotoxic (cell lines with negative Ymin-T0)", "setting": "[4]", "value": 0, "unit": "%"}, {"measurement": "% gIC100 < 2 μM (share of cell lines)", "setting": "[4]", "value": 0, "unit": "%"}, {"measurement": "Median gIC100", "setting": "[4]", "value": 29.33, "unit": "µM"}, {"measurement": "% Cytotoxic (cell lines with negative Ymin-T0)", "setting": "[5]", "value": 10, "unit": "%"}, {"measurement": "% gIC100 < 2 μM (share of cell lines)", "setting": "[5]", "value": 0, "unit": "%"}, {"measurement": "Median gIC100", "setting": "[5]", "value": 29.36, "unit": "µM"}, {"measurement": "% Cytotoxic (cell lines with negative Ymin-T0)", "setting": "[6]", "value": 0, "unit": "%"}, {"measurement": "% gIC100 < 2 μM (share of cell lines)", "setting": "[6]", "value": 0, "unit": "%"}, {"measurement": "Median gIC100", "setting": "[6]", "value": 29.35, "unit": "µM"}, {"measurement": "% Cytotoxic (cell lines with negative Ymin-T0)", "setting": "[7]", "value": 0, "unit": "%"}, {"measurement": "% gIC100 < 2 μM (share of cell lines)", "setting": "[7]", "value": 0, "unit": "%"}, {"measurement": "Median gIC100", "setting": "[7]", "value": 29.34, "unit": "µM"}, {"measurement": "time after which increases in SDMA were apparent", "setting": "[8]; 0.4 μM", "value": 48, "unit": "h"}, {"measurement": "time by which increases in MMA were apparent", "setting": "[8]; 0.4 μM", "value": "≤ 24", "unit": "h"}, {"measurement": "time by which increases in MMA were near maximal", "setting": "[8]; 0.4 μM", "value": "≤ 48", "unit": "h"}, {"measurement": "time required for maximal decrease of 45 kDa ADMA band", "setting": "[8]; 0.4 μM", "value": "72 to 96", "unit": "h"}, {"measurement": "ADMA methylation change", "setting": "[8]; 0.4 μM, up to 120 hours", "value": "decreased"}, {"measurement": "MMA change", "setting": "[8]; 0.4 μM, up to 120 hours", "value": "increased"}, {"measurement": "SDMA level change", "setting": "[8]; 0.4 μM, up to 120 hours", "value": "increase"}, {"measurement": "time to return of ADMA to baseline after washout", "setting": "[8]; then washout", "value": "≤ 24", "unit": "h"}, {"measurement": "time to return of MMA to baseline after washout", "setting": "[8]; then washout", "value": "≤ 24", "unit": "h"}, {"measurement": "time to return of SDMA to baseline after washout", "setting": "[8]; then washout", "value": "≤ 96", "unit": "h"}, {"measurement": "concentrations giving accumulation of cells in sub-G1", "setting": "[9]; beginning after 3 days of treatment", "value": 1000, "unit": "nM"}, {"measurement": "concentrations giving increase in sub-G1 population", "setting": "[9]; by day 7", "value": 100, "unit": "nM"}, {"measurement": "Regression", "setting": "[10]; 300 mg/kg QD oral, day 59", "value": "(2%)"}, {"measurement": "Body weight Difference (vs. vehicle)", "setting": "[10]; 300 mg/kg QD, day 59", "value": "−4", "unit": "%"}, {"measurement": "Regression", "setting": "[10]; 450 mg/kg QD oral, day 59", "value": "(15%)"}, {"measurement": "Body weight Difference (vs. vehicle)", "setting": "[10]; 450 mg/kg QD, day 59", "value": "−7", "unit": "%"}, {"measurement": "Regression", "setting": "[10]; 600 mg/kg QD oral, arm terminated at day 31", "value": "(6%)"}, {"measurement": "Body weight Difference (vs. vehicle)", "setting": "[10]; 600 mg/kg QD, arm terminated at day 31", "value": "−17", "unit": "%"}, {"measurement": "body weight loss", "setting": "[10]; 600 mg/kg daily", "value": "Significant body weight loss"}, {"measurement": "Body weight Difference (vs. vehicle)", "setting": "[10]; […] mg/kg QD, day 59", "value": "−3", "unit": "%"}, {"measurement": "doses at which regressions were observed", "setting": "[10]; oral, daily, up to 59 days", "value": "≥ 300", "unit": "mg/kg"}, {"measurement": "IC50", "setting": "[11]", "value": 6.8, "unit": "µM"}, {"measurement": "Ymin-T0", "setting": "[12]; A375", "value": 91.9}, {"measurement": "gIC100", "setting": "[12]; A375", "value": "29.33 ± 0.00", "unit": "µM"}, {"measurement": "IC50", "setting": "[12]; Homo sapiens, A-375, read-out: gIC50", "value": "50 ± 30", "unit": "nM"}, {"measurement": "Ymin-T0", "setting": "[13]", "value": 12.5}, {"measurement": "gIC100", "setting": "[13]", "value": "28.55 ± 1.40", "unit": "µM"}, {"measurement": "Ymin-T0", "setting": "[14]", "value": 124.9}, {"measurement": "gIC100", "setting": "[14]", "value": "29.33 ± 0.00", "unit": "µM"}, {"measurement": "Ymin-T0", "setting": "[15]", "value": 507.0}, {"measurement": "gIC100", "setting": "[15]", "value": "29.33 ± 0.00", "unit": "µM"}, {"measurement": "Ymin-T0", "setting": "[16]", "value": 19.1}, {"measurement": "gIC100", "setting": "[16]", "value": "29.33 ± 0.00", "unit": "µM"}, {"measurement": "Ymin-T0", "setting": "[17]", "value": 35.9}, {"measurement": "gIC100", "setting": "[17]", "value": "22.37 ± 12.11", "unit": "µM"}, {"measurement": "IC50", "setting": "[18]; Homo sapiens, SK-MEL-5, read-out: gIC50", "value": "90 ± 30", "unit": "nM"}, {"measurement": "Ymin-T0", "setting": "[18]; SK-MEL-5", "value": 31.8}, {"measurement": "gIC100", "setting": "[18]; SK-MEL-5", "value": "27.09 ± 3.92", "unit": "µM"}]}]}
